Common to all, as to format: cell-based, human
One experiment has as its system Collagen I. The experiment in a line: Collagen I synthesis (ELISA) in normal fibroblasts. To be noted: normal fibroblasts (NF), compound at 9.4 mM, 48 hours; pg collagen I per mg proteins. The procedure: (§1) Primary cultures of keloid fibroblasts (KF) and normal fibroblasts (NF) were obtained from operative wastes (keloid and abdominoplasty). After thawing, cells were grown in Dulbecco's modified Eagle's medium (DMEM) supplemented with 10% of fetal calf serum, 40 mg/l of gentamicin and 2 mg/l of fungizone (DMEMc), in an incubator at 37° C., 5% CO2. Culture medium was changed twice a week and cells were subcultured by trypsinization when confluence was reached. Cells were used under 10 passages.
(§2) Compound 1 was directly diluted in culture medium at 5 mg/ml.
(§3) Fibroblasts were seeded in 6 wells culture plate at the concentration of 0.08·10^6 cells/well (n=6). […]
(§4) The synthetized collagen quantity is expressed as the ratio of quantity of collagen vs quantity of total proteins in the sample.
(§5) The quantity of total protein was determined using a biochemical test, the bicinchoninic acid assay (BCA assay). […] Absorbance is read immediately at 550 nm (Spectrophotometer Multiscan Ex, Thermo). The standard curve is drawn and the sample protein concentration is determined with this curve. […]
Collagen I synthesis was evaluated by Enzyme-linked immunosorbent assay with an ELISA kit (USCN SEA571Hu, Euromedex). […] The enzyme-substrate reaction is terminated by the addition of sulfuric acid solution and the color change is measured spectrophotometrically at 450 nm. […]
(§6) Data are expressed as mean+/−sem. […]

Experiment [1] deals with collagen I/collagen III ratio. The experiment in a line: Collagen I/collagen III ratio in normal fibroblasts. To be noted: normal fibroblasts (NF), compound at 9.4 mM. The procedure:
as §1, §2
Fibroblasts were seeded in 6 wells culture plate at the concentration of 0.08·10^6 cells/well (n=6). After 48 hours of culture, wells were washed with 3 ml of PBS. 2 ml of each solution of tested compound were added per wells. […]
as §4
Collagen I synthesis was evaluated by Enzyme-linked immunosorbent assay with an ELISA kit (USCN SEA571Hu, Euromedex). […] The enzyme-substrate reaction is terminated by the addition of sulfuric acid solution and the color change is measured spectrophotometrically at 450 nm. The concentration of collagen I in the samples is then determined by comparing the optical density of the samples to the standard curve. The results were expressed as pg of collagen I by mg of proteins. […]

For the next experiment, the system named is Collagen III. The experiment in a line: Collagen III synthesis (ELISA) in normal fibroblasts. As to conditions: normal fibroblasts (NF), compound at 9.4 mM, 48 hours; ng collagen III per mg proteins. The procedure:
as §1, §2, §3, §4, §5
Collagen III synthesis is performed by Enzyme-linked immunosorbent assay with an ELISA kit (USCN SEA576Hu, Euromedex). […] The enzyme-substrate reaction is terminated by the addition of sulfuric acid solution and the color change is measured spectrophotometrically at 450 nm. […]
as §6

SMILES strings stand for the structures. Marks after values point to notes of the source that are not given here.

With `C[C@H](NC(=O)[C@H](C)NC(=O)[C@@H](N)CCCCNCC(F)(F)[C@]1(O)O[C@H](CO)[C@H](O)[C@H](O)[C@H]1O)C(=O)O` [Compound 1], the “Protein Collagen I, Mean” value with Collagen I is on record as 28.85*** pg/mg. In addition, the “Ratio collagen I/collagen III” value in experiment [1] is on record as 4.39.10^−3. Further, in the experiment with Collagen III, the “Protein Collagen III, Mean” value is given as 6.57*** ng/mg.
